From US11590116B2 (THERAVANCE BIOPHARMA R&D IP, LLC, priority 2019, dated 2023)

Legend:
[1] = target: T1, recombinant human ALK5 (TGF-βR1) protein (Homo sapiens, UniProt P36897); test: Biochemical ALK5 (TGF-βR1) assay to measure pKi (LANCE Ultra ULight kinase assay); settings: apparent pKi from pIC50 by Cheng-Prusoff, read-out: ALK5 pKi (converted)
T1 construct: purchased Life Technologies PR9075A
T1 sequence (P36897 34-503): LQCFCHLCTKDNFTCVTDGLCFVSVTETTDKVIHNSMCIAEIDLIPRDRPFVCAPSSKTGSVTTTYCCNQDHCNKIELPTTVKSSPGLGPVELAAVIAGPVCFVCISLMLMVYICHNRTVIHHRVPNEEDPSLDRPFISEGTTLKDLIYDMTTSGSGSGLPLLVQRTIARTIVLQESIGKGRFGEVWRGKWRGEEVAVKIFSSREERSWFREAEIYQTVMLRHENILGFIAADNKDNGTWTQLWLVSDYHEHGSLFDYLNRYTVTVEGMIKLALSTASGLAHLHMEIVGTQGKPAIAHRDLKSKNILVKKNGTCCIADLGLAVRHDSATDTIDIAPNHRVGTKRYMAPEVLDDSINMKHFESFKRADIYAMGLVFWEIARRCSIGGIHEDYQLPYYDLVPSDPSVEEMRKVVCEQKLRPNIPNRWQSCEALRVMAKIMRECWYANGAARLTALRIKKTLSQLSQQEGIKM
Method in brief: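 After a 60 min room-temperature preincubation of ALK5 with compound, phosphorylation proceeds 60 min at 37 °C on ATP addition (125 μM as 5× stock). Detection: Eu-labelled phospho-Thr1342 Topo IIα antibody in EDTA buffer, pH 7.0; emission 665 nm.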

[2] = test system: TGF-β-stimulated SMAD3 phosphorylation in BEAS-2B cells; test: Cellular ALK5 potency assay, inhibition of TGF-β stimulated pSMAD3 formation in BEAS-2B cells; type: cell-based; settings: Homo sapiens; inhibition of TGF-β stimulated pSMAD3 formation, BEAS-2B cells; read-out: BEAS2B pIC50 (converted)
Method in brief: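 pSMAD3 was quantified by AlphaLISA in BEAS-2B lysates after 10 ng/mL TGF-β (final) for 30 min. Before stimulation, cells received compound for 1 h at 37° C in supplemented HBSS. Values are pIC50, relative to TGF-β-stimulated cells without compound.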

Row | Ki [1] [nM] | SMILES | IC50 [2] [nM]
1 | 0.0398 to 0.316 | Cc1cccc(-c2[nH]cnc2-c2ccc3ncc(NC(=O)C4CCNCC4)cc3c2)n1 [Compound 649, N-[6-[5-(6-methyl-2-pyridyl)-1H-imidazol-4-yl]-3-quinolyl]piperidine-4-carboxamide] | 200 to 1260
2 | 0.0398 to 0.316 | Cc1cccc(-c2[nH]cnc2-c2ccc3ncc(-c4ccc(C(=O)OCC5CNC5)cc4)cc3c2)n1 [Compound 650, azetidin-3-ylmethyl 4-[6-[5-(6-methyl-2-pyridyl)-1H-imidazol-4-yl]-3-quinolyl]benzoate] | 25.1 to 158
3 | < 0.0316 | Cc1nc(-c2n[nH]cc2-c2ccc3ncc(-c4cc5n(n4)CCCN5)cc3n2)ccc1F [Compound 651, 2-[3-(5-fluoro-6-methyl-2-pyridyl)-1H-pyrazol-4-yl]-7-(4,5,6,7-tetrahydropyrazolo[1,5-a]pyrimidin-2-yl)-1,5-naphthyridine] | < 20
4 | 0.0398 to 0.316 | Cc1cccc(-c2[nH]cnc2-c2ccc3ncc(Nc4ccc(N5CCN(C)CC5)cn4)cc3n2)n1 [Compound 653, N-(5-(4-methylpiperazin-1-yl)pyridin-2-yl)-6-(5-(6-methylpyridin-2-yl)-1H imidazol-4-yl)-1,5-naphthyridin-3-amine] | 25.1 to 158
5 | 0.0398 to 0.316 | Cc1cccc(-c2n[nH]cc2-c2ccc3ncc(N4CCN(C)CC4)cc3n2)n1 [Compound 654, 7-(4-methylpiperazin-1-yl)-2-[3-(6-methyl-2-pyridyl)-1H-pyrazol-4-yl]-1,5-naphthyridine] | 25.1 to 158
6 | 0.0398 to 0.316 | Cc1cccc(-c2n[nH]cc2-c2ccc3ncc(-c4cnc5n4CCCN5)cc3n2)n1 [Compound 655, 2-[3-(6-methyl-2-pyridyl)-1H-pyrazol-4-yl]-7-(5,6,7,8-tetrahydroimidazo[1,2-a]pyrimidin-3-yl)-1,5-naphthyridine] | 25.1 to 158
7 | < 0.0316 | Cc1cccc(-c2nc[nH]c2-c2ccc3ncc(-c4cnn([C@H]5CCCC[C@@H]5N)c4)cc3c2)n1 [Compound 656, (1S,2S)-2-[4-[6-[4-(6-methyl-2-pyridyl)-1H-imidazol-5-yl]-3-quinolyl]pyrazol-1-yl]cyclohexanamine] | < 20
8 | 0.0398 to 0.316 | Cc1cccc(-c2nc3ccccn3c2-c2ccc3ncc(Br)cc3n2)n1 [Compound 657, 7-bromo-2-[2-(6-methyl-2-pyridyl)imidazo[1,2-a]pyridin-3-yl]-1,5-naphthyridine] | 25.1 to 158
9 | < 0.0316 | Cc1nc(-c2n[nH]cc2-c2ccc3ncc(-c4cn5c(n4)NCC5)cc3n2)ccc1F [Compound 658, 7-(2,3-dihydro-1H-imidazo[1,2-a]imidazol-6-yl)-2-[3-(5-fluoro-6-methyl-2-pyridyl)-1H-pyrazol-4-yl]-1,5-naphthyridine] | < 20
10 | 0.0398 to 0.316 | COC(=O)CC1CNCCN1CCNc1cnc2ccc(-c3nc[nH]c3-c3cccc(C)n3)cc2c1 (stereo not shown) [Compound 659, methyl 2-[1-[2-[[6-[5-(6-methyl-2-pyridyl)-1H-imidazol-4-yl]-3-quinolyl]amino]ethyl]piperazin-2-yl]acetate] | 200 to 1260
11 | 0.0398 to 0.316 | Cc1cccc(-c2nc3ccccn3c2-c2ccc3ncc(-c4cnn(CCN)c4)cc3n2)n1 [Compound 660, 2-[4-[6-[2-(6-methyl-2-pyridyl)imidazo[1,2-a]pyridin-3-yl]-1,5-naphthyridin-3-yl]pyrazol-1-yl]ethanamine] | 25.1 to 158
12 | 0.0398 to 0.316 | Cc1nc(-c2n[nH]cc2-c2ccc3ncc(N4CCNCC4)cc3n2)ccc1F [Compound 661, 2-[3-(5-fluoro-6-methyl-2-pyridyl)-1H-pyrazol-4-yl]-7-piperazin-1-yl-1,5-naphthyridine] | < 20
13 | 0.0398 to 0.316 | Cc1cccc(-c2[nH]cnc2-c2ccc3ncc(-c4ccc(C(=O)OC5CNC5)cc4)cc3c2)n1 [Compound 663, azetidin-3-yl 4-[6-[5-(6-methyl-2-pyridyl)-1H-imidazol-4-yl]-3-quinolyl]benzoate] | 25.1 to 158
14 | 0.0398 to 0.316 | Cc1cccc(-c2n[nH]cc2-c2ccc3ncc(Nc4ccc(N5CCN(C)CC5)cc4)cc3c2)n1 [Compound 664, N-(4-(4-methylpiperazin-1-yl)phenyl)-6-(3-(6-methylpyridin-2-yl)-1H-pyrazol-4-yl)quinolin-3-amine] | 25.1 to 158
15 | 0.0398 to 0.316 | Cc1cccc(-c2[nH]cnc2-c2ccc3ncc(-c4cncc(C(=O)OCC5CNC5)c4)cc3c2)n1 [Compound 665, azetidin-3-ylmethyl 5-[6-[5-(6-methyl-2-pyridyl)-1H-imidazol-4-yl]-3-quinolyl]pyridine-3-carboxylate] | 200 to 1260
16 | 0.0398 to 0.316 | Cc1cccc(-c2n[nH]cc2-c2ccc3ncc(Nc4ccc(N5CCN(C)CC5)cn4)cc3c2)n1 [Compound 666, N-[5-(4-methylpiperazin-1-yl)-2-pyridyl]-6-[3-(6-methyl-2-pyridyl)-1H-pyrazol-4-yl]quinolin-3-amine] | 25.1 to 158
17 | 0.0398 to 0.316 | Cc1cccc(-c2[nH]cnc2-c2ccc3ncc(Nc4cnn(CCC5CCNCC5)c4)cc3c2)n1 [Compound 667, 6-[5-(6-methyl-2-pyridyl)-1H-imidazol-4-yl]-N-[1-[2-(4-piperidyl)ethyl]pyrazol-4-yl]quinolin-3-amine] | 200 to 1260
18 | < 0.0316 | Cc1cccc(-c2n[nH]cc2-c2ccc3ncc(NCCN4CCNCC4)cc3n2)n1 [Compound 668, 6-[3-(6-methyl-2-pyridyl)-1H-pyrazol-4-yl]-N-(2-piperazin-1-ylethyl)-1,5-naphthyridin-3-amine] | 200 to 1260
19 | < 0.0316 | Cc1cccc(-c2n[nH]cc2-c2ccc3ncc(-c4cnn(C5COC5)c4)cc3n2)n1 [Compound 669, 2-[3-(6-methyl-2-pyridyl)-1H-pyrazol-4-yl]-7-[1-(oxetan-3-yl)pyrazol-4-yl]-1,5-naphthyridine] | < 20
20 | 0.0398 to 0.316 | Cc1cccc(-c2[nH]cnc2-c2ccc3ncc(NCCN4CCC(C(=O)O)CC4)cc3c2)n1 [Compound 670, 1-[2-[[6-[5-(6-methyl-2-pyridyl)-1H-imidazol-4-yl]-3-quinolyl]amino]ethyl]piperidine-4-carboxylic acid] | 200 to 1260
21 | 0.0398 to 0.316 | Cc1cccc(-c2n[nH]cc2-c2ccc3ncc(-c4nc(CCN)c(C)[nH]4)cc3n2)n1 [Compound 671, 2-[5-methyl-2-[6-[3-(6-methyl-2-pyridyl)-1H-pyrazol-4-yl]-1,5-naphthyridin-3-yl]-1H-imidazol-4-yl]ethanamine] | 200 to 1260
22 | 0.0398 to 0.316 | CNCC1CN(c2cnc3ccc(-c4c[nH]nc4-c4cccc(C)n4)nc3c2)C1 [Compound 672, N-methyl-1-[1-[6-[3-(6-methyl-2-pyridyl)-1H-pyrazol-4-yl]-1,5-naphthyridin-3-yl]azetidin-3-yl]methanamine] | 25.1 to 158
23 | 0.0398 to 0.316 | COC(=O)Cn1cc(-c2cnc3ccc(-c4c[nH]nc4-c4cccc(C)n4)nc3c2)cn1 [Compound 673, methyl 2-[4-[6-[3-(6-methyl-2-pyridyl)-1H-pyrazol-4-yl]-1,5-naphthyridin-3-yl]pyrazol-1-yl]acetate] | 25.1 to 158
24 | 0.0398 to 0.316 | Cc1nc(-c2n[nH]cc2-c2ccc3ncc(-c4cccn(C)c4=O)cc3n2)ccc1F [Compound 674, 3-[6-[3-(5-fluoro-6-methyl-2-pyridyl)-1H-pyrazol-4-yl]-1,5-naphthyridin-3-yl]-1-methyl-pyridin-2-one] | < 20
25 | 0.0398 to 0.316 | CNC(=O)c1cnc2ccc(-c3cn[nH]c3-c3cccc(C)n3)nc2c1 [Compound 675, N-methyl-6-[5-(6-methyl-2-pyridyl)-lH-pyrazol-4-yl]-1,5-naphthyridine-3-carboxamide] | 25.1 to 158
26 | 0.0398 to 0.316 | Cc1cccc(-c2nc3ncccn3c2-c2ccc3ncc(-c4cn[nH]c4)cc3n2)n1 [Compound 676, 2-(2-(6-methylpyridin-2-yl)imidazo[1,2-a]pyrimidin-3-yl)-7-(1H-pyrazol-4-yl)-1,5-naphthyridine] | 25.1 to 158
27 | 0.0398 to 0.316 | Cc1cccc(-c2[nH]ncc2-c2ccc3ncc(-c4nnco4)cc3n2)n1 [Compound 677, 2-[6-[5-(6-methyl-2-pyridyl)-1H-pyrazol-4-yl]-1,5-naphthyridin-3-yl]-1,3,4-oxadiazole] | 25.1 to 158
28 | < 0.0316 | Cc1cccc(-c2n[nH]cc2-c2ccc3ncc(-c4ccc5c(n4)CCNC5)cc3n2)n1 [Compound 678, 2-[3-(6-methyl-2-pyridyl)-1H-pyrazol-4-yl]-7-(5,6,7,8-tetrahydro-1,6-naphthyridin-2-yl)-1,5-naphthyridine] | 25.1 to 158

Row | SMILES | Ki [1] [nM] | IC50 [2] [nM]
29 | CCN1CCC(N(C)c2cnc3ccc(-c4c[nH]nc4-c4cccc(C)n4)nc3c2)CC1 [Compound 662, N-(1-ethyl-4-piperidyl)-N-methyl-6-[3-(6-methyl-2-pyridyl)-1H-pyrazol-4-yl]-1,5-naphthyridin-3-amine] | 0.0398 to 0.316 | 25.1 to 158
